ChEMBL document CHEMBL4020788, “Synthesis, SAR and molecular docking studies of benzo[d]thiazole-hydrazones as potential antibacterial and antifungal agents” (2017)
The source made the active and inactive calls. The rule behind the calls is not given here.

Key:
Assay type in all cases: functional
Staphylococcus aureus [1] = test: Antibacterial activity against methicillin resistant Staphylococcus aureus MRSA090 at 50 ug/ml after 24 hrs by agar well diffusion method; settings: MRSA090, 24 h, read-out: DIZ
Fusarium verticillioides [2] = test: Antifungal activity against Fusarium moniliforme at 75 ug/ml after 48 hrs by agar well diffusion method; settings: read-out: DIZ
Fusarium oxysporum [3] = test: Antifungal activity against Fusarium oxysporum at 25 ug/ml after 48 hrs by agar well diffusion method; settings: read-out: DIZ
Fusarium oxysporum [4] = test: Antifungal activity against Fusarium oxysporum at 100 ug/ml after 48 hrs by agar well diffusion method; settings: read-out: DIZ
Bacillus subtilis [5] = test: Antibacterial activity against Bacillus subtilis at 50 ug/ml after 24 hrs by agar well diffusion method; settings: read-out: DIZ
Fusarium oxysporum [6] = test: Antifungal activity against Fusarium oxysporum at 50 ug/ml after 48 hrs by agar well diffusion method; settings: read-out: DIZ
Fusarium oxysporum [7] = test: Antifungal activity against Fusarium oxysporum at 75 ug/ml after 48 hrs by agar well diffusion method; settings: read-out: DIZ
Staphylococcus aureus [8] = test: Antibacterial activity against methicillin resistant Staphylococcus aureus MRSA090 at 25 ug/ml after 24 hrs by agar well diffusion method; settings: MRSA090, 24 h, read-out: DIZ
Fusarium verticillioides [9] = test: Antifungal activity against Fusarium moniliforme at 25 ug/ml after 48 hrs by agar well diffusion method
Klebsiella pneumoniae [10] = test: Antibacterial activity against Klebsiella pneumoniae at 100 ug/ml after 24 hrs by agar well diffusion method; settings: read-out: DIZ
Fusarium verticillioides [11] = test: Antifungal activity against Fusarium moniliforme at 100 ug/ml after 48 hrs by agar well diffusion method; settings: read-out: DIZ
Staphylococcus aureus [12] = test: Antibacterial activity against Staphylococcus aureus at 25 ug/ml after 24 hrs by agar well diffusion method; settings: read-out: DIZ
Staphylococcus aureus [13] = test: Antibacterial activity against Staphylococcus aureus at 75 ug/ml after 24 hrs by agar well diffusion method; settings: read-out: DIZ
Aspergillus niger [14] = test: Antifungal activity against Aspergillus niger at 75 ug/ml after 48 hrs by agar well diffusion method; settings: read-out: DIZ
Staphylococcus aureus [15] = test: Antibacterial activity against methicillin resistant Staphylococcus aureus MRSA090 at 75 ug/ml after 24 hrs by agar well diffusion method; settings: MRSA090, 24 h, read-out: DIZ
Klebsiella pneumoniae [16] = test: Antibacterial activity against Klebsiella pneumoniae at 50 ug/ml after 24 hrs by agar well diffusion method; settings: read-out: DIZ
Bacillus subtilis [17] = test: Antibacterial activity against Bacillus subtilis at 25 ug/ml after 24 hrs by agar well diffusion method
Staphylococcus aureus [18] = test: Antibacterial activity against Staphylococcus aureus at 100 ug/ml after 24 hrs by agar well diffusion method; settings: read-out: DIZ
Bacillus subtilis [19] = test: Antibacterial activity against Bacillus subtilis at 75 ug/ml after 24 hrs by agar well diffusion method; settings: read-out: DIZ
Escherichia coli [20] = test: Antibacterial activity against Escherichia coli at 75 ug/ml after 24 hrs by agar well diffusion method; settings: read-out: DIZ
Aspergillus niger [21] = test: Antifungal activity against Aspergillus niger at 100 ug/ml after 48 hrs by agar well diffusion method; settings: read-out: DIZ
Escherichia coli [22] = test: Antibacterial activity against Escherichia coli at 25 ug/ml after 24 hrs by agar well diffusion method; settings: read-out: DIZ
Staphylococcus aureus [23] = test: Antibacterial activity against Staphylococcus aureus at 50 ug/ml after 24 hrs by agar well diffusion method; settings: read-out: DIZ
Fusarium verticillioides [24] = test: Antifungal activity against Fusarium moniliforme at 50 ug/ml after 48 hrs by agar well diffusion method
Klebsiella pneumoniae [25] = test: Antibacterial activity against Klebsiella pneumoniae at 75 ug/ml after 24 hrs by agar well diffusion method; settings: read-out: DIZ
Escherichia coli [26] = test: Antibacterial activity against Escherichia coli at 100 ug/ml after 24 hrs by agar well diffusion method; settings: read-out: DIZ
Klebsiella pneumoniae [27] = test: Antibacterial activity against Klebsiella pneumoniae at 25 ug/ml after 24 hrs by agar well diffusion method; settings: read-out: DIZ
Staphylococcus aureus [28] = test: Antibacterial activity against methicillin resistant Staphylococcus aureus MRSA090 at 100 ug/ml after 24 hrs by agar well diffusion method; settings: MRSA090, 24 h, read-out: DIZ
Aspergillus niger [29] = test: Antifungal activity against Aspergillus niger at 25 ug/ml after 48 hrs by agar well diffusion method; settings: read-out: DIZ
Aspergillus niger [30] = test: Antifungal activity against Aspergillus niger at 50 ug/ml after 48 hrs by agar well diffusion method; settings: read-out: DIZ
Bacillus subtilis [31] = test: Antibacterial activity against Bacillus subtilis at 100 ug/ml after 24 hrs by agar well diffusion method; settings: read-out: DIZ
Escherichia coli [32] = test: Antibacterial activity against Escherichia coli at 50 ug/ml after 24 hrs by agar well diffusion method; settings: read-out: DIZ

Row | Compound | zone of inhibition at 50 µg/mL (Staphylococcus aureus [1]) [mm] | zone of inhibition at 75 µg/mL (Fusarium verticillioides [2]) [mm] | zone of inhibition at 25 µg/mL (Fusarium oxysporum [3]) [mm] | zone of inhibition at 100 µg/mL (Fusarium oxysporum [4]) [mm] | zone of inhibition at 50 µg/mL (Bacillus subtilis [5]) [mm] | zone of inhibition at 50 µg/mL (Fusarium oxysporum [6]) [mm] | zone of inhibition at 75 µg/mL (Fusarium oxysporum [7]) [mm] | zone of inhibition at 25 µg/mL (Staphylococcus aureus [8]) [mm] | zone of inhibition at 100 µg/mL (Klebsiella pneumoniae [10]) [mm] | zone of inhibition at 100 µg/mL (Fusarium verticillioides [11]) [mm] | zone of inhibition at 25 µg/mL (Staphylococcus aureus [12]) [mm] | zone of inhibition at 75 µg/mL (Staphylococcus aureus [13]) [mm] | zone of inhibition at 75 µg/mL (Aspergillus niger [14]) [mm] | zone of inhibition at 75 µg/mL (Staphylococcus aureus [15]) [mm] | zone of inhibition at 50 µg/mL (Klebsiella pneumoniae [16]) [mm] | zone of inhibition at 100 µg/mL (Staphylococcus aureus [18]) [mm] | zone of inhibition at 75 µg/mL (Bacillus subtilis [19]) [mm] | zone of inhibition at 75 µg/mL (Escherichia coli [20]) [mm] | zone of inhibition at 100 µg/mL (Aspergillus niger [21]) [mm] | zone of inhibition at 25 µg/mL (Escherichia coli [22]) [mm] | also measured
1 | Cc1cccc2nc(N/N=C/c3ccc([N+](=O)[O-])cc3)sc12 | 7 | 4 | 6 | 21 | 4 | 10 | 14 | 3 | 16 | 8 | 7 | 12 | 17 | 10 | 11 | 14 | 8 | 11 | 21 | 4 | diameter of the inhibition zone (DIZ) (Fusarium verticillioides [9]): inactive; diameter of the inhibition zone (DIZ) (Bacillus subtilis [17]): inactive; zone of inhibition at 50 µg/mL (Staphylococcus aureus [23]): 9 mm; diameter of the inhibition zone (DIZ) (Fusarium verticillioides [24]): inactive; zone of inhibition at 75 µg/mL (Klebsiella pneumoniae [25]): 14 mm; zone of inhibition at 100 µg/mL (Escherichia coli [26]): 14 mm; zone of inhibition at 25 µg/mL (Klebsiella pneumoniae [27]): 7 mm; zone of inhibition at 100 µg/mL (Staphylococcus aureus [28]): 16 mm; zone of inhibition at 25 µg/mL (Aspergillus niger [29]): 6 mm; zone of inhibition at 50 µg/mL (Aspergillus niger [30]): 13 mm; zone of inhibition at 100 µg/mL (Bacillus subtilis [31]): 11 mm; zone of inhibition at 50 µg/mL (Escherichia coli [32]): 18 mm
2 | Cc1cccc2nc(N/N=C/c3ccc(F)cc3)sc12 | 12 | 21 | 10 | 21 | 9 | 13 | 18 | 8 | 19 | 30 | 9 | 16 | 18 | 16 | 11 | 18 | 12 | 14 | 22 | 5 | zone of inhibition at 25 µg/mL (Fusarium verticillioides [9]; read-out: DIZ): 14 mm; zone of inhibition at 25 µg/mL (Bacillus subtilis [17]; read-out: DIZ): 6 mm; zone of inhibition at 50 µg/mL (Staphylococcus aureus [23]): 12 mm; zone of inhibition at 50 µg/mL (Fusarium verticillioides [24]; read-out: DIZ): 18 mm; zone of inhibition at 75 µg/mL (Klebsiella pneumoniae [25]): 16 mm; zone of inhibition at 100 µg/mL (Escherichia coli [26]): 17 mm; zone of inhibition at 25 µg/mL (Klebsiella pneumoniae [27]): 6 mm; zone of inhibition at 100 µg/mL (Staphylococcus aureus [28]): 19 mm; zone of inhibition at 25 µg/mL (Aspergillus niger [29]): 10 mm; zone of inhibition at 50 µg/mL (Aspergillus niger [30]): 13 mm; zone of inhibition at 100 µg/mL (Bacillus subtilis [31]): 14 mm; zone of inhibition at 50 µg/mL (Escherichia coli [32]): 9 mm
